Measurements published in patent US5079257A, “Indoloquinone compounds” (priority 1986, dated 1992).
Values after ≈ are worked out from the molar mass of the structure shown. Where two headings read alike, the source gives them in different places.

Experiments:
[1] = Half-wave reduction potentials / polarography (University of Utrecht); assay type: physicochemical; conditions: for E1/2, halve wave reduction potential: Table IA, only the first (quinone) reduction potential
Description: *The halve wave reduction potentials (E1/2) have been determined at the
Pharmaceutical Laboratory of University of Utrecht. Only the first
(quinone) reduction potential has been given.
Additional evidence for the occurrence of a bioreductive activation mechanism during the cytotoxic action of indoloquinones (II) was obtained via electrochemical studies, which have been carried out at the Pharmaceutical Laboratory of the University of Utrecht. […]

[2] = system: R-1 cells (Rhabdomyosarcoma Cells); assay: R-1 activity (bioliquid assay), cytotoxicity; assay type: cell-based; conditions: Rhabdomyosarcoma cell
Description: The indoloquinones II (formula II) have been tested in respect of their cytotoxic activity against L1210 cells and R-1 cells (Rhabdomyosarcoma Cells) in a bioliquid assay at the department of oncology of the Free University of Amsterdam (Table I). […] (Table II). Eight indoloquinones (E.O. 1, E.O. 2, E.O. 4, E.O. 4A, E.O. 8, E.O. 9, E.O. 33 and E.O. 35) have been tested in a panel of five human tumour lines (TNO Rijswijk; Table III).
For the determination of the R-1 activity, Rhabdomyosarcoma cells were brought into Falcon multiwells (growth area: 9.6 cm^2) (~10^6 cells per dish) containing 3 ml of Dulbecco's medium supplemented with 10% Foeto Calf Serum (FCS). […] Thereupon the drug solution was removed and the cells were covered with fresh medium. After 48 hours the cells were trypsinized and counted on a Sysmex microcell counter (CC110).
(§1) The in vitro L1210 and R-1 activities of the indoloquinones (formula III), were also determined in the bioliquid assays as described above.

L1210 cells = assay: L1210 activity (bioliquid assay), cytotoxicity; assay type: cell-based; conditions: for IC50: Mus musculus
Description: The indoloquinones II (formula II) have been tested in respect of their cytotoxic activity against L1210 cells and R-1 cells (Rhabdomyosarcoma Cells) in a bioliquid assay at the department of oncology of the Free University of Amsterdam (Table I). In addition to this seven compounds (E.O. 1, E.O. 2, E.O. 4, E.O. 7, E.O. 9, E.O. 16 and E.O. 17) have been tested on L1210 activity in a clonogenic assay at TNO, Rijswijk. Further, the lowest active doses of the compounds E.O. 1, E.O. 2, E.O. 4 and E.O. 9 have been determined at TNO Rijswijk, according to the method described by Lamberts et al. [Oncology, 40, 301 (1983)]. (Table II). Eight indoloquinones (E.O. 1, E.O. 2, E.O. 4, E.O. 4A, E.O. 8, E.O. 9, E.O. 33 and E.O. 35) have been tested in a panel of five human tumour lines (TNO Rijswijk; Table III). From the latter group three indoloquinones (E.O. 1, E.O. 4 and E.O. 9) have been selected for a cytotoxicity study, involving five slowly growing human tumour lines (University of Freiburg; Table IV).
For this purpose, L1210 cells were grown, as suspension, in Falcon multi-wells (growth area: 9.6 cm^2) using RPMI supplemented with 15% FCS and 2-mercapto-ethanol (60 μmol) as medium. In this medium, the cells were continuously incubated with the compound to be tested at 37° C. in an atmosphere of 5% CO2 in humidified air for 48 hours. Thereupon they were counted on a Sysmex microcell counter (CC110).
as §1

MCF7 breast cancer cells = assay: In vitro panel of human tumour lines (TNO): MCF-7; assay type: cell-based; conditions: about 72 hours; note: key: -: no inhibition of cell growth; +: total cell-kill
Protocol: (§2) Compounds E.O. 1, E.O. 2, E.O. 4, E.O. 4A, E.O. 8, E.O. 9, […], E.O. 33, and E.O. 35 were tested for their activity against five human tumour cell lines at the Radiobiological Institute TNO Rijswijk.
(§3) The new in vitro prescreen uses human tumour clones; it was set up by Dr. P. Lelieveld at TNO Rijswijk and comprises testing compounds in a bioliquid assay for their cytostatic activity against the following five human tumour lines:
(§4) After a continuous exposure to the drugs to be tested and to Adriamycin in `24 well tissue culture clusters, type 3524 (Costar)`, the remaining cells are fixed and stained. Using increasing drug concentrations the inhibiting concentration can be estimated qualitatively.
(§5) Cells: the human tumour cells are maintained in Dulbecco's medium supplemented with 10 percent foetal calf serum.
(§6) M and W cell suspensions: 10^5 cells/ml.
(§7) The cells were grafted into 16 mm wells for 48 hours (0.5 ml cell suspension per well was used).
(§8) Drugs: the compound to be tested was dissolved in appropriate concentrations in a mixture of Hepes-buffered Hanks' balanced salt solution and ethanol. The drug solutions (0.05 ml) were added to the different wells. The final ethanol concentration in each well was less than one percent.
(§9) The cells were continuously incubated with the compound under test at 37° in an atmosphere of 10 percent CO2 in humidified air for about 72 hours.
(§10) Determination of the inhibiting dose: the cells were fixed and stained with a solution of crystal violet in methanol/formaldehyde.

[3] = system: T 24 cells; bladder carcinoma; assay: In vitro panel of human tumour lines (TNO): T 24; assay type: cell-based; conditions: about 72 hours; note: key: -: no inhibition of cell growth; +: total cell-kill
Protocol: as §2, §3, §4, §5
(§11) A, T and Z cell suspensions: 5·10^4 cells/ml
as §7, §8, §9, §10

WiDr cells; colon tumour = assay: In vitro panel of human tumour lines (TNO): WiDr; assay type: cell-based; conditions: about 72 hours; note: key: -: no inhibition of cell growth; +: total cell-kill
Protocol: as §2, §3, §4, §5, §6, §7, §8, §9, §10

IgR37 cells melanoma = assay: In vitro panel of human tumour lines (TNO): IgR-37; assay type: cell-based; conditions: about 72 hours; note: key: -: no inhibition of cell growth; +: total cell-kill
Protocol: as §2, §3, §4, §5, §11, §7, §8, §9, §10

[4] = system: A 204 cells; rhabdomyosarcoma; assay: In vitro panel of human tumour lines (TNO): A 204; assay type: cell-based; conditions: about 72 hours; note: key: -: no inhibition of cell growth; +: total cell-kill
Protocol: as §2, §3, §4, §5, §11, §7, §8, §9, §10

[5] = Table I, bioliquid assay, read-out: ID-50 R-1
[6] = L1210, Table I, bioliquid assay, 48 hours, read-out: ID-50 L1210
[7] = Table IA, para-indoloquinone diesters, read-out: ID-50 R-1
[8] = L1210, 48 h, Table IA, para-indoloquinone diesters, read-out: ID-50 L1210

**Q.** With `Cn1c(/C=C/CO)c(CO)c2c1C(=O)C=C(N1CCOCC1)C2=O` [E.O. 12, 3-Hydroxymethyl-1-methyl-5-morpholino-2-[1H-indole-4,7-dione]prop-β-en-α-ol] as the molecule, how does the “half-wave potential E1.2, wave I” value ([1]; pH = 8 vs Ag/AgCl) read?
**A.** The value was -420 mV.

**Q.** What about the IC50 [2, 5] of the same molecule?
**A.** Its IC50 is > 10 µg/mL.

**Q.** And the IC50 ([2]; Table VI, read-out: ID-50 R-1)?
**A.** The IC50 was > 10 µg/mL.

**Q.** What about the IC50 (L1210 cells; [6]) of the same molecule?
**A.** Its IC50 is 3.8 µg/mL (≈ 11.4 µM).

**Q.** With `COC(=O)/C=C/c1c(C(=O)OC)c2c(n1C)C(=O)C=C(NCC(O)CO)C2=O` (centres unmarked) [E.O. 23, Methyl 5-(2,3-dihydroxypropyl-1-amino)-3-methoxycarbonyl-1-methyl-2-[1H-indole-4,7-dione]acrylate] as the molecule, how does the “E1/2, halve wave reduction potential” value [1] read?
**A.** The value was -343 mV.

**Q.** What about the IC50 [2, 7] of the same molecule?
**A.** Its IC50 is > 10 µg/mL.

**Q.** And the IC50 (L1210 cells; [8])?
**A.** The IC50 was > 10 µg/mL.

**Q.** What does the source list for `CCC1(O)CC2CN(CCc3c([nH]c4ccccc34)C(C(=O)OC)(c3cc4c(cc3OC)N(C)C3C(O)(C(=O)OC)C(OC(C)=O)C5(CC)C=CCN6CCC43C65)C2)C1` (centres unmarked) [Vinblast., reference compound]?
**A.** in vitro activity score, MCF-7 (MCF7 breast cancer cells; 1.0 μg/ml): +; in vitro activity score, MCF-7 (MCF7 breast cancer cells; 10 μg/ml): +; in vitro activity score, T 24 ([3]; 0.1 μg/ml): +; in vitro activity score, WiDr (WiDr cells; colon tumour; 0.01 μg/ml): +; in vitro activity score, WiDr (WiDr cells; colon tumour; 0.1 μg/ml): +; in vitro activity score, WiDr (WiDr cells; colon tumour; 1.0 μg/ml): +; in vitro activity score, WiDr (WiDr cells; colon tumour; 10 μg/ml): +; in vitro activity score, IgR-37 (IgR37 cells melanoma; 0.01 μg/ml): +; in vitro activity score, IgR-37 (IgR37 cells melanoma; 0.1 μg/ml): +

**Q.** With `COC(=O)/C=C/c1c(C(=O)OC)c2c(n1C)C(=O)C=C(O)C2=O` [E.O. 24, Methyl 5-hydroxy-3-methoxycarbonyl-1-methyl-2-[1H-indole-4,7-dione]acrylate] as the molecule, how does the “E1/2, halve wave reduction potential” value [1] read?
**A.** Its value is -299 mV.

**Q.** What about the IC50 [2, 7] of the same molecule?
**A.** The IC50 was > 10 µg/mL.

**Q.** What about the IC50 (L1210 cells; [8]) of the same molecule?
**A.** Its IC50 is > 10 µg/mL.

**Q.** Which “in vitro activity score, MCF-7” value (MCF7 breast cancer cells; 0.01 μg/ml) does the source give for `COC1=C(C)C(=O)c2c(c(COC(C)=O)c(/C=C/COC(C)=O)n2C)C1=O` [E.O. 33, 3-Acetoxymethyl-1,6-dimethyl-5-methoxy-2-[1H-indole-4,7-dione]prop-β-en-α-yl acetate] here?
**A.** The value was “-”.

**Q.** What about the “in vitro activity score, MCF-7” value (MCF7 breast cancer cells; 0.1 μg/ml) of the same molecule?
**A.** Its value is “-”.

**Q.** What about the “in vitro activity score, MCF-7” value (MCF7 breast cancer cells; 1.0 μg/ml) of the same molecule?
**A.** The value was “-”.

**Q.** And the “in vitro activity score, T 24” value ([3]; 0.01 μg/ml)?
**A.** Its value is “-”.

**Q.** What about the “in vitro activity score, T 24” value ([3]; 0.1 μg/ml) of the same molecule?
**A.** The value was “-”.

**Q.** And the “in vitro activity score, T 24” value ([3]; 1.0 μg/ml)?
**A.** The value was “-”.

**Q.** What about the “in vitro activity score, T 24” value ([3]; 10 μg/ml) of the same molecule?
**A.** Its value is “+”.

**Q.** And the “in vitro activity score, WiDr” value (WiDr cells; colon tumour; 0.01 μg/ml)?
**A.** Its value is “-”.

**Q.** What about the “in vitro activity score, WiDr” value (WiDr cells; colon tumour; 0.1 μg/ml) of the same molecule?
**A.** The value was “-”.

**Q.** What about the “in vitro activity score, WiDr” value (WiDr cells; colon tumour; 1.0 μg/ml) of the same molecule?
**A.** The value was “-”.

**Q.** What about the “in vitro activity score, A 204” value ([4]; 0.01 μg/ml) of the same molecule?
**A.** Its value is “-”.

**Q.** What about the “in vitro activity score, A 204” value ([4]; 0.1 μg/ml) of the same molecule?
**A.** The value was “-”.

**Q.** And the “in vitro activity score, A 204” value ([4]; 1.0 μg/ml)?
**A.** The value was “-”.

**Q.** What about the “in vitro activity score, A 204” value ([4]; 10 μg/ml) of the same molecule?
**A.** Its value is “+”.

**Q.** And the IC50 [2, 5]?
**A.** Its IC50 is 2.2 µg/mL.

**Q.** What about the IC50 (L1210 cells; [6]) of the same molecule?
**A.** The IC50 was 3.6 µg/mL.

**Q.** And the “in vitro activity score, IgR-37” value (IgR37 cells melanoma; 0.01 μg/ml)?
**A.** The value was “-”.

**Q.** What about the “in vitro activity score, IgR-37” value (IgR37 cells melanoma; 0.1 μg/ml) of the same molecule?
**A.** Its value is “-”.

**Q.** And the “in vitro activity score, IgR-37” value (IgR37 cells melanoma; 1.0 μg/ml)?
**A.** The value was “-”.

**Q.** What about the “in vitro activity score, IgR-37” value (IgR37 cells melanoma; 10 μg/ml) of the same molecule?
**A.** The value was “+”.

**Q.** Which “direct current polarogram” value ([1]; DC-polarography) does the source give for `CC(=O)OC/C=C/c1c(COC(C)=O)c2c(n1C)C(=O)C=C(NCC(O)CO)C2=O` (stereo not drawn) [E.O. 6, 3-Acetoxymethyl-5-(2,3-dihydroxypropyl-1-amino)-1-methyl-2-[1H-indole-4,7-dione]prop-β-en-α-yl acetate] here?
**A.** Its value is “two or more reduction waves”.

**Q.** And the “half-wave potential E1.2, wave I” value ([1]; pH = 8 vs Ag/AgCl)?
**A.** Its value is -515 mV.

**Q.** What about the “half-wave potential E1.2, wave III” value ([1]; pH = 8 vs Ag/AgCl) of the same molecule?
**A.** Its value is -600 mV.

**Q.** And the “half-wave potential E1.2, wave IV” value ([1]; pH = 8 vs Ag/AgCl)?
**A.** The value was -985 mV.

**Q.** What about the IC50 [2, 5] of the same molecule?
**A.** The IC50 was > 10 µg/mL.

**Q.** And the IC50 ([2]; Table VI, read-out: ID-50 R-1)?
**A.** The IC50 was > 10 µg/mL.

**Q.** And the IC50 (L1210 cells; [6])?
**A.** Its IC50 is > 10 µg/mL.

**Q.** And the “ID-50 L1210” value (L1210 cells; Table VI, 2880 min)?
**A.** Its value is > 10 µg/mL.

**Q.** Which results are given for `COC(=O)/C=C/c1c(C(=O)OC)c2c(n1C)C(=O)C=C(N1CC1C)C2=O` (centres unmarked) [E.O. 28, Methyl 3-methoxycarbonyl-1-methyl-5-propyleneamino-2-[1H-indole-4,7-dione]acrylate]?
**A.** E1/2, halve wave reduction potential [1]: -171 mV; IC50 ([2]; read-out: ID-50 R-1, Table IA, para-indoloquinone diesters): 5.7 µg/mL (≈ 15.9 µM); IC50 (L1210 cells; L1210, 48 h, read-out: ID-50 L1210, Table IA, para-indoloquinone diesters): 2.2 µg/mL (≈ 6.14 µM)
